The results in this text go back to patent publication US8871756B2 (Hoffmann-La Roche Inc., priority 2011, dated 2014).

SMILES strings stand for the structures.

The EC50 is the concentration at which the effect is half-maximal.

The assay deals with RSV Long strain. The experiment in a line: Viral cytopathic effect (CPE) assay, anti-RSV activity. The class given is cell-based, Respiratory Syncytial Virus. The following applies: RSV Long strain (ATCC), cell viability after 6 days, Cell Counting kit-8. In outline: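 Cells (6×10^3/well, DMEM with 10% FBS) were infected next day with RSV Long strain, at a dose giving approximately 80–90% CPE, alongside serial half-log compound dilutions. Viability was read after 6 days by CCK-8 absorbance at 450 nm (reference 630 nm), and EC50 was derived from it.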
For orientation: Damage to the host cells serves as the signal in cytopathic effect assays.

Setting [1] is: human respiratory syncytial virus, 144 h.

Consider `NCCNc1cc(N2CCCc3ccccc3C2)nc2cccc(Cl)c12` [Example 119, N-[5-Chloro-2-(1,3,4,5-tetrahydro-2H-2-benzazepin-2-yl)quinolin-4-yl]ethane-1,2-diamine], for which the EC50 under setting [1] was found to be 6.66 µM.
In the case of `NCCNc1cc(N2CCS(=O)(=O)c3ccccc3C2)nc2ccc(N)cc12` [Example 85, N^˜4^˜-(2-Aminoethyl)-2-(1,1-dioxido-2,3-dihydro-1,4-benzothiazepin-4(5H)-yl)quinoline-4,6-diamine], under setting [1], the response was half-maximal at 0.008 µM (EC50).
Turning to `Cc1ccc2nc(N3CCS(=O)(=O)c4ccccc4C3)cc(N3CCCC(N)C3)c2c1` (centres unmarked) [Example 16-1, 1-[2-(1,1-Dioxido-2,3-dihydro-1,4-benzothiazepin-4(5H)-yl)-6-methylquinolin-4-yl]piperidin-3-amine], a half-maximal effect under setting [1] (EC50) was put at 2.57 µM. Compared with the last compound, the EC50 is about 320-fold higher.
Regarding `CC(=O)NCCCNc1cc(N2CCS(=O)(=O)c3ccccc3C2)nc2ccc(C)cc12` [Example 63-3, N-(3-{[2-(1,1-Dioxido-2,3-dihydro-1,4-benzothiazepin-4(5H)-yl)-6-methylquinolin-4-yl]amino}propyl)acetamide], a half-maximal response under setting [1] (EC50) required 0.007 µM.
On the same count and under the same terms, for `Cc1ccc2nc(N3CCS(=O)(=O)c4ccccc4C3)cc(NC(=O)CN)c2c1` [Example 40-1, N-[2-(1,1-Dioxido-2,3-dihydro-1,4-benzothiazepin-4(5H)-yl)-6-methylquinolin-4-yl]glycinamide] the value was 0.039 µM; for `Cc1ccc2nc(N3CCS(=O)(=O)c4ccc(F)cc4C3)cc(NCC3(N)COC3)c2c1` [Example 1-3, N-[(3-Aminooxetan-3-yl)methyl]-2-(7-fluoro-1,1-dioxido-2,3-dihydro-1,4-benzothiazepin-4(5H)-yl)-6-methylquinolin-4-amine], 0.072 µM.
On the same count and under the same terms, the result for `COc1ccc2c(c1)CN(c1cc(NCCN)c3ccccc3n1)CCC2` [Example 118-17, N-[2-(8-Methoxy-1,3,4,5-tetrahydro-2H-2-benzazepin-2-yl)quinolin-4-yl]ethane-1,2-diamine] reads 0.806 µM.
Still for that read-out and setting: for `Cc1ccc2nc(N3CCS(=O)(=O)c4ccccc4C3)cc(NCC3(CN)CS(=O)(=O)C3)c2c1` [Example 6-2, N-{[3-(Aminomethyl)-1,1-dioxidothietan-3-yl]methyl}-2-(1,1-dioxido-2,3-dihydro-1,4-benzothiazepin-4(5H)-yl)-6-methylquinolin-4-amine] the value was 0.908 µM; for `Cc1ccc2nc(N3CCS(=O)(=O)c4ccccc4C3)cc(NCCN3CCCCC3)c2c1` [Example 9-6, 2-(1,1-Dioxido-2,3-dihydro-1,4-benzothiazepin-4(5H)-yl)-6-methyl-N-[2-(piperidin-1-yl)ethyl]quinolin-4-amine], 0.275 µM; for `Cc1ccc2nc(N3CCS(=O)(=O)c4ccccc4C3)cc(NCCNC3COC3)c2c1` [Example 45-3, N-[2-(1,1-Dioxido-2,3-dihydro-1,4-benzothiazepin-4(5H)-yl)-6-methylquinolin-4-yl]-N′-(oxetan-3-yl)ethane-1,2-diamine], 0.031 µM.
Under setting [1], `Cc1ccc2nc(N3CCS(=O)(=O)c4ccccc4C3)cc(OC3CCNCC3)c2c1` [Example 98-2] returned a half-maximal effective concentration (EC50) of 3.16 µM.
On the same count and under the same terms, for `Cc1ccc2nc(N3CCS(=O)(=O)c4ccccc4C3)cc(S(=O)(=O)c3ccccc3)c2c1` [Example 102, 4-[6-Methyl-4-(phenylsulfonyl)quinolin-2-yl]-2,3,4,5-tetrahydro-1,4-benzothiazepine 1,1-dioxide] the value was 9.76 µM; for `Cc1ccc2nc(N3CCS(=O)(=O)c4ccccc4C3)nc(NCC(O)CO)c2c1` (centres unmarked) [Example 87-1, 3-{[2-(1,1-Dioxido-2,3-dihydro-1,4-benzothiazepin-4(5H)-yl)-6-methylquinazolin-4-yl]amino}propane-1,2-diol], 0.096 µM; for `NCCCc1cc(N2CCCc3ccccc3C2)nc2ccccc12` [Example 128, 3-[2-(1,3,4,5-Tetrahydro-2H-2-benzazepin-2-yl)quinolin-4-yl]propan-1-amine], 7.17 µM.
Under setting [1], `NCCNc1cc(N2CCOc3ccccc3C2)nc2ccccc12` [Example 134, N-[2-(2,3-Dihydro-1,4-benzoxazepin-4(5H)-yl)quinolin-4-yl]ethane-1,2-diamine] yielded an EC50 of 0.25 µM.
As for `NCCNc1cc(N2CCCc3ccccc3C2)nc2ccc(Br)cc12` [Example 118-10, N-[6-Bromo-2-(1,3,4,5-tetrahydro-2H-2-benzazepin-2-yl)quinolin-4-yl]ethane-1,2-diamine], under setting [1], the concentration for a half-maximal effect (EC50) came out at 0.289 µM.
Consider `Cc1ccc2nc(N3CCS(=O)(=O)c4ccccc4C3)cc(NCC(O)CC(=O)O)c2c1` (centres unmarked) [Example 11-3, 4-{[2-(1,1-Dioxido-2,3-dihydro-1,4-benzothiazepin-4(5H)-yl)-6-methylquinolin-4-yl]amino}-3-hydroxybutanoic acid], for which, under setting [1], the EC50 came out at 0.922 µM.
Still for that read-out and setting: for `Cc1ccc2nc(N3CCS(=O)(=O)c4ccccc4C3)cc(NCCN(C)C)c2c1` [Example 3-32, N′-[2-(1,1-Dioxido-2,3-dihydro-1,4-benzothiazepin-4(5H)-yl)-6-methylquinolin-4-yl]-N,N-dimethylethane-1,2-diamine] the value was 0.037 µM.
On the same count and under the same terms, the result for `Cc1ccc2nc(N3CCS(=O)(=O)c4ccccc4C3)cc(NC(=O)c3ccccc3)c2c1` [Example 3-59, N-[2-(1,1-Dioxido-2,3-dihydro-1,4-benzothiazepin-4(5H)-yl)-6-methylquinolin-4-yl]benzamide] reads 1.08 µM; that for `Cc1ccc2nc(N3CCC(F)(F)c4ccccc4C3)cc(NCCS(=O)(=O)CCN)c2c1` [Example 113, N-{2-[(2-Aminoethyl)sulfonyl]ethyl}-2-(5,5-difluoro-1,3,4,5-tetrahydro-2H-2-benzazepin-2-yl)-6-methylquinolin-4-amine], 0.733 µM; that for `Cc1ccc2nc(N3CCS(=O)(=O)c4ccccc4C3)cc(NC(=O)c3cccnc3)c2c1` [Example 47-4, N-[2-(1,1-Dioxido-2,3-dihydro-1,4-benzothiazepin-4(5H)-yl)-6-methylquinolin-4-yl]pyridine-3-carboxamide], 0.993 µM.
For `Cc1ccc2nc(N3CCS(=O)(=O)c4ccc(N5CCOCC5)cc4C3)cc(NCC3(N)COC3)c2c1` [Example 33-1, N-[(3-Aminooxetan-3-yl)methyl]-2-(7-morpholin-4-yl-1,1-dioxido-2,3-dihydro-1,4-benzothiazepin-4(5H)-yl)-6-methylquinolin-4-amine], under setting [1], the response was half-maximal at 0.044 µM (EC50).
`Cc1ccc2nc(N3CCS(=O)(=O)c4ccccc4C3)cc(NC[C@@H](C)N)c2c1` [Example 5-9, (2R)—N˜1˜-[2-(1,1-Dioxido-2,3-dihydro-1,4-benzothiazepin-4(5H)-yl)-6-methylquinolin-4-yl]propane-1,2-diamine] had a concentration giving a half-maximal response (EC50) under setting [1] of 0.018 µM.
With `Cc1ccc2nc(N3CCS(=O)(=O)c4ccccc4C3)cc(NC(=O)CO)c2c1` [Example 47-9, N-[2-(1,1-Dioxido-2,3-dihydro-1,4-benzothiazepin-4(5H)-yl)-6-methylquinolin-4-yl]-2-hydroxyacetamide], a half-maximal response under setting [1] (EC50) required 0.192 µM.
The same measure, in the same setting: for `Cc1ccc2nc(N3CC[S+]([O-])c4ccccc4C3)nc(N3CCC(N)C3)c2c1` (centres unmarked) [Example 93-1, 1-[6-Methyl-2-(1-oxido-2,3-dihydro-1,4-benzothiazepin-4(5H)-yl)quinazolin-4-yl]pyrrolidin-3-amine] the value was 0.005 µM; for `Cc1ccc2nc(N3CCC(F)(F)c4ccccc4C3)cc(NC3CCNC3)c2c1` (centres unmarked) [Example 110-10], 0.099 µM.
On the same count and under the same terms, the result for `NC1(CNc2nc(N3CCS(=O)(=O)c4ccccc4C3)nc3ccccc23)COC1` [Example 57-3, N-[(3-Aminooxetan-3-yl)methyl]-2-(1,1-dioxido-2,3-dihydro-1,4-benzothiazepin-4(5H)-yl)quinazolin-4-amine] reads 0.023 µM.
The same measure, in the same setting: for `Cc1ccc2nc(N3CCS(=O)(=O)c4ccccc4C3)cc(NC3(CN)COC3)c2c1` [Example 71, N-[3-(Aminomethyl)oxetan-3-yl]-2-(1,1-dioxido-2,3-dihydro-1,4-benzothiazepin-4(5H)-yl)-6-methylquinolin-4-amine] the value was 0.005 µM.
For the compound `Cc1ccc2nc(N3CCS(=O)(=O)c4ccccc4C3)cc(NCCC(N)=O)c2c1` [Example 36-1, N^˜3^˜-[2-(1,1-Dioxido-2,3-dihydro-1,4-benzothiazepin-4(5H)-yl)-6-methylquinolin-4-yl]-beta-alaninamide], a half-maximal response under setting [1] (EC50) required 0.073 µM.
Same read-out and setting: the result for `Cc1ccc2nc(N3CC[S+]([O-])c4ccccc4C3)nc(N[C@@H]3CNC[C@H]3F)c2c1` (relative stereo) [Example 92-1, N-(trans-4-Fluoropyrrolidin-3-yl)-6-methyl-2-(1-oxido-2,3-dihydro-1,4-benzothiazepin-4(5H)-yl)quinazolin-4-amine] reads 0.009 µM.
Turning to `Cc1ccc2nc(N3CCS(=O)(=O)c4ccccc4C3)nc(NCC(F)CCN)c2c1` (centres unmarked) [Example 62-5, N^˜1^˜-[2-(1,1-Dioxido-2,3-dihydro-1,4-benzothiazepin-4(5H)-yl)-6-methylquinazolin-4-yl]-2-fluorobutane-1,4-diamine], the midpoint of the response, the EC50, lay at 0.017 µM.
Turning to `Cc1ccc2nc(N3CCS(=O)(=O)c4ccccc4C3)nc(NCC3(N)CC3)c2c1` [Example 135-1, N-[(1-Aminocyclopropyl)methyl]-2-(1,1-dioxido-2,3-dihydro-1,4-benzothiazepin-4(5H)-yl)-6-methylquinazolin-4-amine], a half-maximal effect under setting [1] (EC50) was put at 0.006 µM.
As for `NCCNc1cc(N2Cc3ccc(Br)cc3CCC2=O)nc2ccccc12` [Example 124, 2-{4-[(2-Aminoethyl)amino]quinolin-2-yl}-7-bromo-1,2,4,5-tetrahydro-3H-2-benz azepin-3-one], the EC50 under setting [1] turned out to be 6.1 µM. This EC50 is about 1000-fold higher than that of the compound before.
Consider `Cc1ccc2nc(N3CCS(=O)(=O)c4ccccc4C3)cc(NC3CCNC3)c2c1` (centres unmarked) [Example 21-4, 2-(1,1-Dioxido-2,3-dihydro-1,4-benzothiazepin-4(5H)-yl)-6-methyl-N-(pyrrolidin-3-yl)quinolin-4-amine], for which the EC50 under setting [1] came out at 0.004 µM.
`Cc1ccc2c(c1)S(=O)(=O)CCN(c1cc(NCC3(CN)COC3)c3ccccc3n1)C2` [Example 3-7] gave an EC50 under setting [1] of 0.009 µM.
